From patent publication US5648336A (University of Colorado, priority 1994, dated 1997) come the findings set out here.

Structures are written as SMILES. Where two headings read alike, the source gives them in different places. Square brackets hold non-standard residues; d marks the D form. Peptide text beside a SMILES is read from it. Oic = O=C(O)[C@@H]1C[C@@H]2CCCC[C@@H]2N1; dIgl = N[C@@H](C(=O)O)C1Cc2ccccc2C1; Igl = N[C@H](C(=O)O)C1Cc2ccccc2C1; Hyp = O=C(O)[C@@H]1C[C@@H](O)CN1; NMeF = CN[C@@H](Cc1ccccc1)C(=O)O; 2Thi = N[C@@H](Cc1cccs1)C(=O)O

The target of one experiment is T1, B1 receptors (Oryctolagus cuniculus, UniProt P48748).
T1 construct: The thorax was opened and the thoracic aorta carefully removed; from tissue; host or cells: rabbit thoracic aorta spiral strips
T1 sequence (P48748 1-352): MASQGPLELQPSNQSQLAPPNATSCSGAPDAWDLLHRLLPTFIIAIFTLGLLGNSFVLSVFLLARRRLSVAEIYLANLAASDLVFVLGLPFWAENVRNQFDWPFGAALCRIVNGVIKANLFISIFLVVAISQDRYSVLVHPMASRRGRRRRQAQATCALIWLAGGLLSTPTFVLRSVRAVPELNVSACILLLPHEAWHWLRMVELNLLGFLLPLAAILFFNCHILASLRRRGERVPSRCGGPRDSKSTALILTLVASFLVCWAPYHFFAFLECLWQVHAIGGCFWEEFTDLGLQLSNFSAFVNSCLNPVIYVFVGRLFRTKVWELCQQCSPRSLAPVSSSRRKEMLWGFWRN
Nature of the experiment: B1 receptor bioassay, rabbit aorta strips contracted with des-Arg9-BK. The format is cell-based. Conditions: 50% reduction of sustained contraction to 10^-7 M des-Arg9-BK; read-out: Rabbit Aorta p IC50 B1 receptors (converted). As for the experimental part: Male New Zealand white rabbits, weight range 2-3 kg, were killed by an overdose of pentobarbital i.v. The thorax was opened and the thoracic aorta carefully removed. […] The tissues were placed under 1 gm isometric tension and allowed to equilibrate for 1H. At time 1h, a concentration-effect curve was constructed to the selective B1 agonist des-Arg^9 -BK. This was repeated at time 3 hours. […] Once the contraction was sustained, the compound to be assayed was applied to the tissue bath in a cumulative manner. The concentration of the compound which produced a 50% reduction of the sustained contraction was calculated. The negative logarithm of this concentration was calculated and expressed as the […].

A further experiment concerns the target T2, Human B2 receptors (Homo sapiens, UniProt P30411).
T2 construct: expressed in transfected cells; membranes used
T2 sequence (P30411 1-364 isoform P30411-2): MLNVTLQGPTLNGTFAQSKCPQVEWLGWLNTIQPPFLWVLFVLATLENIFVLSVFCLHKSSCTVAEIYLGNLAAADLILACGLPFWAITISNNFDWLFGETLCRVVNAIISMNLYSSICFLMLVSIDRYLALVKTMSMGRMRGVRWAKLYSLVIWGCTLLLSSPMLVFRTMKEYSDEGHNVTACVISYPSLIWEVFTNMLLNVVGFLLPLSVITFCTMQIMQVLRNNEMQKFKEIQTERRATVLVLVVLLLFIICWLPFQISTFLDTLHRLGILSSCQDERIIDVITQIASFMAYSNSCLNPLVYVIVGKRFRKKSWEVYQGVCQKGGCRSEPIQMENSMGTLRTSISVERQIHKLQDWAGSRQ
Nature of the experiment: Human B2 binding, cloned receptor in CHO cell membranes, 3H-bradykinin. An excerpt: Human B2 receptors were cloned and expressed in Chinese hamster ovary cells. RNA was isolated from human lung fibroblasts (CCD-16 LU obtained from the ATCC) using the method of Chirgwin et al (Biochemistry 18:5294 (1979)). The RNA was transcribed into cDNA using MMLV reverse transcriptase, the primer […] and the procedure of Maniatis (Molecular Cloning Cold Spring Harbor Laboratory (1982)). The human B2 receptor cDNA was selectively amplified using nested PCR. The first round PCR used the two primers […] and […] and Taq DNA polymerase (Promega). Twenty-five rounds of PCR were done using the following conditions: 94° C., 1 minute for denaturation, 50° C., 1 minute for annealing followed by 72° C., 3 minutes for extension. Excess primers were removed with a Centricon 30 miniconcentrator. A portion of this first round reaction was used as a template in a second round of PCR using the following primers […] and […]. The number of rounds of PCR and the conditions were the same as those used for the first round. The DNA obtained after this second round was digested with the restriction enzymes Hind III and Xba I using standard methodology. Cesium chloride-purified pRc/CMV (Invitrogen) was also digested with Hind III and Xba I using standard methodology. The products of the two digests were resolved on a 1% low melt agarose gel. The human B2 receptor DNA (approximately 1.1 kb) and the pRc/CMV DNA (approximately 5.5 kb) were excised from the gel. The gel slices containing these DNAs were heated at 65° C. and aliquots combined in a reaction containing T4 DNA ligase. The reaction was incubated overnight at 15° C.
An aliquot of this reaction was used to transform frozen competent E. coli DH5α cells (GibcoBRL). Transformants containing the human B2 receptor DNA were selected on LB+amp plates. One of the transformants was selected and the sequence of the human B2 receptor DNA insert determined using the Sequenase enzyme (United States Biochemical) according to the manufacturer's instructions. This sequence was compared to the sequence of Hess et al (Biochemical and Biophysical Research Communications 184:260 1992)). […] The human BK2 receptor-pRc/CMV plasmid was transfected into CHO-k1 cells using the Lipofectamine reagent (GibcoBRL).
Cells containing the receptor were grown to confluence and harvested by scraping into PBS and homogenized. Membranes were prepared by centrifugation in 25 mM TES pH6.8 containing 1 mM 1.10 Phenanthroline. The final pellet was resuspended in assay buffer (25 mM TES, 1 mM 1.10 Phenanthroline, 1 mM DTT, […] Captopril, 0.1% BSA pH=6.8) and frozen. […] Incubation was carried out at room temperature for 45 min. The assay was terminated by filtration through a polyethylenimine soaked G-A filter. Radioactivity was measured on a Wallac 1450 MicroBeta LSC.
The Kd for the receptor was determined by kinetic analysis of on and off rates utilizing a single exponential decay off rate. Ki 's for compounds were calculated using the following equation: Ki =IC50 /(1+[L]/Kd), where L=free ligand concentration.

A further experiment has as its system isolated rat uterus. From the text: (§1) A change of one unit of pA2 value represents an order of magnitude change in potency.
(§2) On isolated smooth muscles, agonist potency is given as percent of BK potency; antagonist potency is given as pA2, and is underlined. In blood pressure assays, the number is the dose of peptide in micrograms that causes 50% reduction in the effect of BK intraarterially administered as a bolus mixture in a 500 g male rat; Ag indicates unquantitated agonist activity; Ant indicates unquantitated antagonist activity.

The test system of another experiment is guinea pig ileum.
Excerpt: as §1, §2

[1] abbreviates: CHO clone S34f membranes, 0.3 nM 3H-Bradykinin, room temperature 45 min, read-out: Human Receptor Clone B2 receptor binding (Ki) (converted).

On to `N=C(N)NCCC[C@H](NC(=O)[C@@H]1C[C@@H]2CCCC[C@@H]2N1C(=O)[C@H](NC(=O)[C@H](CO)NC(=O)[C@@H](NC(=O)CNC(=O)[C@@H]1C[C@@H](O)CN1C(=O)[C@@H]1CCCN1C(=O)[C@H](CCCNC(=N)N)NC(=O)[C@@H](CCCNC(=N)N)NC(=O)C12CC3CC(CC(C3)C1)C2)C1Cc2ccccc2C1)C1Cc2ccccc2C1)C(=O)O` [Compound 2, Aca-DArg-Arg-Pro-Hyp-Gly-Iglb-Ser-DIg lb-Oic-Arg], for which, at B1 receptors, the IC50 was 1780 nM. At Human B2 receptors (setting [1]), the Ki is 0.0447 nM. In addition, in the experiment with isolated rat uterus, the “Uterus Activity, antagonist potency given as pA2” value (“Uterus Activity” below) is listed as 7.5. The “Ileum Activity, antagonist potency given as pA2” value (shortened to “Ileum Activity”) in the experiment with guinea pig ileum was found to be 7.8.
Consider `N=C(N)NCCC[C@H](NC(=O)[C@@H]1C[C@@H]2CCCC[C@@H]2N1C(=O)[C@H](NC(=O)[C@H](CO)NC(=O)[C@@H](NC(=O)CNC(=O)[C@@H]1C[C@@H](O)CN1C(=O)[C@@H]1CCCN1C(=O)[C@H](CCCNC(=N)N)NC(=O)[C@@H](CCCNC(=N)N)NC(=O)C1=CN2CCC1CC2)C1Cc2ccccc2C1)C1Cc2ccccc2C1)C(=O)O` [Compound 3, Dhg-DArg-Arg-Pro-Hyp-Gly-Iglb-Ser-DIg lb-Oic-Arg], for which the half-maximal inhibitory concentration (IC50) at B1 receptors is 1170 nM. Further, the inhibition constant Ki on Human B2 receptors (setting [1]) was 0.00141 nM. Besides, the “Uterus Activity” value in the experiment with isolated rat uterus came to 7.4. For the same molecule, the “Ileum Activity” value in the experiment on guinea pig ileum turned out to be 7.6.
With `N=C(N)NCCC[C@H](NC(=O)[C@@H]1C[C@@H]2CCCC[C@@H]2N1C(=O)[C@H](NC(=O)[C@H](CO)NC(=O)[C@H](Cc1cccs1)NC(=O)CNC(=O)[C@@H]1C[C@@H](O)CN1C(=O)[C@@H]1CCCN1C(=O)[C@@H](N)CCCNC(=N)N)C1Cc2ccccc2C1)C(=O)O` [Compound 5, Arg-Pro-Hyp-Gly-Thi-Ser-DIglb-Oic-Arg] (H-RP[Hyp]G[2Thi]S[dIgl][Oic]R-OH), the IC50 on B1 receptors is 1550 nM. Besides, the Ki at Human B2 receptors (setting [1]) was 0.0692 nM. For the same molecule, the “Ileum Activity” value in the experiment on guinea pig ileum was found to be 7.7.
For the molecule `N=C(N)NCCC[C@@H](N)C(=O)N[C@@H](CCCNC(=N)N)C(=O)N1CCC[C@H]1C(=O)N1C[C@H](O)C[C@H]1C(=O)NCC(=O)N[C@@H](Cc1cccs1)C(=O)N[C@@H](CO)C(=O)N(CC(=O)N1[C@H](C(=O)N[C@@H](CCCNC(=N)N)C(=O)O)C[C@@H]2CCCC[C@@H]21)C1Cc2ccccc2C1` [Compound 16, DArg-Arg-Pro-Hyp-Gly-Thi-Ser-Nigb-Oic-Arg], the inhibition constant Ki at Human B2 receptors (setting [1]) was 0.309 nM. Further, the “Uterus Activity” value in the experiment with isolated rat uterus turned out to be 6.8. For the same molecule, the “Ileum Activity” value in the experiment with guinea pig ileum is given as 7.0.
With `N=C(N)NCCC[C@@H](N)C(=O)N[C@@H](CCCNC(=N)N)C(=O)N1CCC[C@H]1C(=O)N1C[C@H](O)C[C@H]1C(=O)NCC(=O)N[C@@H](Cc1cccs1)C(=O)N[C@@H](CO)C(=O)N[C@@H](C(=O)N1Cc2ccccc2C[C@H]1C(=O)N[C@@H](CCCNC(=N)N)C(=O)O)C1Cc2ccccc2C1` [Compound 22, DArg-Arg-Pro-Hyp-Gly-Thi-Ser-DIglb-Tic-Arg], the half-maximal inhibitory concentration (IC50) at B1 receptors is 1780 nM. The Ki on Human B2 receptors (setting [1]) was 0.0126 nM. The “Uterus Activity” value in the experiment with isolated rat uterus is recorded as 7.0. Moreover, the “Ileum Activity” value in the experiment on guinea pig ileum is 6.8.
Turning to `N=C(N)NCCC[C@@H](N)C(=O)N[C@@H](CCCNC(=N)N)C(=O)N1CCC[C@H]1C(=O)N1C[C@H](O)C[C@H]1C(=O)NCC(=O)N[C@@H](Cc1cccs1)C(=O)N[C@@H](CO)C(=O)N1Cc2ccccc2C[C@@H]1C(=O)N(CC(=O)N[C@@H](CCCNC(=N)N)C(=O)O)C1Cc2ccccc2C1` [Compound 23, DArg-Arg-Pro-Hyp-Gly-Thi-Ser-DTic-Nigb-Arg], the IC50 at B1 receptors is more than 10000 nM. Further, the inhibition constant Ki at Human B2 receptors (setting [1]) was 0.0158 nM. In the experiment with isolated rat uterus, the “Uterus Activity” value was found to be 8.3. In the experiment with guinea pig ileum, the “Ileum Activity” value came out at 7.2.
As for `Cc1ccc(C[C@@H](NC(=O)CNC(=O)[C@@H]2C[C@@H](O)CN2C(=O)[C@@H]2CCCN2C(=O)[C@H](CCCNC(=N)N)NC(=O)[C@H](N)CCCNC(=N)N)C(=O)N[C@@H](CO)C(=O)N[C@@H](C(=O)N2[C@H](C(=O)N[C@@H](CCCNC(=N)N)C(=O)O)C[C@@H]3CCCC[C@@H]32)C2Cc3ccccc3C2)c(C)c1` [Compound 27, DArg-Arg-Pro-Hyp-Gly-DDMF-Ser-DIglb-Oic-Arg], the 50% inhibitory concentration (IC50) on B1 receptors is more than 10000 nM. Further, the Ki at Human B2 receptors (setting [1]) is 0.178 nM. The “Uterus Activity” value in the experiment on isolated rat uterus is reported as 8.0. In addition, the “Ileum Activity” value in the experiment with guinea pig ileum is 6.9.
With `N=C(N)NCCC[C@@H](N)C(=O)N[C@@H](CCCNC(=N)N)C(=O)N1CCC[C@H]1C(=O)N1C[C@H](O)C[C@H]1C(=O)NCC(=O)N[C@H](Cc1cccs1)C(=O)N[C@@H](CO)C(=O)N[C@@H](C(=O)N1[C@H](C(=O)N[C@@H](CCCNC(=N)N)C(=O)O)C[C@@H]2CCCC[C@@H]21)C1Cc2ccccc2C1` [Compound 31, DArg-Arg-Pro-Hyp-Gly-DThi-Ser-DIglb-Oic-Arg], on B1 receptors, the 50% inhibitory concentration (IC50) is more than 10000 nM. For the same molecule, affinity at Human B2 receptors was put at a Ki of 0.01 nM.
In the case of `CN(C(=O)[C@H](CCCNC(=N)N)NC(=O)[C@H](N)CCCNC(=N)N)[C@@H](Cc1ccccc1)C(=O)N1C[C@H](O)C[C@H]1C(=O)NCC(=O)N[C@H](C(=O)N[C@@H](CO)C(=O)N[C@@H](C(=O)N1[C@H](C(=O)N[C@@H](CCCNC(=N)N)C(=O)O)C[C@@H]2CCCC[C@@H]21)C1Cc2ccccc2C1)C1Cc2ccccc2C1` [Compound 45, DArg-Arg-NMF-Hyp-Gly-Iglb-Ser-DIglb-Oic-Arg] (H-[dR]R[NMeF][Hyp]G[Igl]S[dIgl][Oic]R-OH), at B1 receptors, the half-inhibitory concentration (IC50) is 2880 nM. Besides, at Human B2 receptors (setting [1]), the Ki was 0.141 nM.
Consider `N=C(N)NCCC[C@H](NC(=O)[C@@H]1C[C@@H]2CCCC[C@@H]2N1C(=O)[C@H](NC(=O)[C@H](COS(=O)(=O)O)NC(=O)[C@H](Cc1cccs1)NC(=O)CNC(=O)[C@@H]1C[C@@H](O)CN1C(=O)[C@@H]1CCCN1C(=O)[C@H](CCCNC(=N)N)NC(=O)[C@@H](CCCNC(=N)N)NC(=O)C12CC3CC(CC(C3)C1)C2)C1Cc2ccccc2C1)C(=O)O` [Compound 61, Aca-DArg-Arg-Pro-Hyp-Gly-Thi-Ser(SO)-DIglb-Oic-Arg], for which the IC50 on B1 receptors is 4170 nM. Also, at Human B2 receptors (setting [1]), the Ki was 4.07 nM. Further, the “Ileum Activity” value in the experiment with guinea pig ileum came out at 7.5.
